Reference: patent US9119805B2, “Therapy and prevention of problem drinking” (THE UNIVERSITY OF SYDNEY, priority 2009, dated 2015)

Tests used:
[1] = tested on: alcohol-dependent adults and non-dependent problem drinkers; assay: Human Study 1: intranasal oxytocin, stress and alcohol-related cues; type: in vivo; details: during presentation of stress and alcohol cues, versus placebo
Method: The underlying mechanisms of intranasal oxytocin during exposure to stress and alcohol related cues in adult alcohol-dependent and adult non-dependent problem drinkers are determined.
In particular, at least twenty male and female adults reporting alcohol dependence according to the Diagnostic and Statistical Manual of Mental Disorders, Fourth Edition (DSM-IV) as determined by the Structured Clinical Interview for the DSM-IV (SCID-IV) are recruited from the community to participate in a laboratory based investigation on the role of oxytocin in stress-related alcohol craving. […]
Subjects returning to the Brain and Mind Research Institute on the afternoon of the final day of testing are evaluated. Bloods and saliva are taken, and plasma oxytocin and cortisol levels and saliva cortisol are determined and compared to baseline levels before commencement of therapy. […] Changes in mood, drinking behavior and neuropsychology are evaluated for both groups by comparison with baseline evaluations. Changes in smoking behavior are evaluated by FTND testing and comparison with baseline evaluations. HR and BP records over the period and at cessation are also determined and compared to baseline levels before commencement of therapy. […]

[2] = tested on: alcohol-dependent adults and non-dependent problem drinkers; assay: Human Study 3: chronic (4 week) intranasal oxytocin, double-blind placebo-controlled; type: in vivo
Method: In a third clinical study in humans, a double-blind, randomized and placebo-controlled study is conducted to determine the effect(s) of intranasal oxytocin therapy on alcohol self-administration in a population of alcohol-dependent adults and in a population of non-dependent problem drinkers. This study determines safety and efficacy of chronic intranasal oxytocin therapy for problem drinking.
At least 30 male and female alcohol-dependent adults and non-dependent problem drinkers are recruited according to the protocols described in the preceding examples hereof, to participate in a trial investigating chronic (4 week) intranasal oxytocin therapy for problem drinking e.g., alcohol-dependent subjects having a current diagnosis of alcohol dependence according to the Diagnostic and Statistical Manual of Mental Disorders, Fourth Edition (DSM-IV) as determined by the Structured Clinical Interview for the DSM-IV (SCID-IV), and non-dependent subjects scoring higher than 8 on AUDIT. Exclusion criteria are as indicated in the preceding examples.
All subjects are tested for baseline SCID-IV, AUDIT, PDQ, 90-day TLFB, DASS-21, PANAS, AUQ, FTND, body mass index (BMI), urine toxicology, bloods for baseline oxytocin and cortisol, liver function testing, heart rate (HR), blood pressure (BP), and ECG, and females are pregnancy-tested and their menstrual cycles determined, as described herein above for Study 2. Neuropsychological evaluations e.g., according to CANTAB are also performed. Additionally, subjects are subjected to attention bias assessment task testing, wherein attention biases to alcohol-related cues are determined using e.g., stroop and dot-probe methodology. Subjects also participate in a reward learning computer task, to assess motivation for their alcohol consumption. Based on their test results, subjects are selected for recruitment in the study.
Recruited subjects are administered placebo or oxytocin intranasally (80 IU per day: 40 IU at 9:00 am and 40 IU at 9:00 pm) over a period of 28 days, following completion of baseline measurements. Subjects are instructed on self-administration procedures and given an initial 14 day supply of medication. Participants attend a mid-point assessment where they will receive the remaining 14 day supply of medication. Drug administration commences on the evening of the day of the clinical and medical interview and ceases on a morning 28 days later, after 56 doses have been administered. Subjects are randomized to oxytocin-receiving or placebo-receiving groups, and the groups are stratified according to gender, age, and drinking behavior.
Recruited subjects are also fitted with an actigraphy watch and complete a sleep diary over the following two week period. The actigraphy watches provide information on sleep/wake cycles and light exposure which play an important role in the psychopathology of alcohol misuse. Participants also complete daily self-tests of drinking behavior (AUQ), mood (PANAS), and report on adverse effects of medication. All participants are contacted weekly beginning after 3 days from the commencement of therapy, to determine compliance and adverse events.
Subjects returning to the BMRI on the afternoon of the 14th day of testing are evaluated i.e., the mid-point assessment. Bloods are taken for analysis of plasma oxytocin and cortisol levels as well as basic pathology including liver function and compared to baseline levels before commencement of drug dosing. A urine toxicology test and alcohol breathalyzer test are also performed, to determine whether subjects have been alcohol-free and drug-free at the time of testing. Subjects are tested according to DASS-21, PANAS, 14-day TLFB, and AUQ, and neuropsychological evaluations e.g., according to CANTAB are performed. Changes in mood, drinking behavior and neuropsychology are evaluated for both groups by comparison with baseline evaluations. […]

[3] = dosing period and follow-up, than before therapy
[4] = intranasal 80 IU per day for 28 days

Compound: CC[C@H](C)[C@@H]1NC(=O)[C@H](Cc2ccc(O)cc2)NC(=O)[C@@H](N)CSSC[C@@H](C(=O)N2CCC[C@H]2C(=O)N[C@@H](CC(C)C)C(=O)NCC(N)=O)NC(=O)[C@H](CC(N)=O)NC(=O)[C@H](CCC(N)=O)NC1=O [oxytocin]
- anxiety and stress [1]: lower
- subjective craving for alcohol [1]: lower
- criteria for problem drinking ([2]; at 3-month or 6-month or 12-month follow-up): do not meet the criteria for problem drinking
- heavy drinking days ([2]; dosing period and 3-, 6-, 12-month follow-up, than before therapy): fewer heavy drinking days
- cognitive biases to alcohol-related cues ([2]; dosing period and follow-up): reduced cognitive biases
- liver function, BMI, and heart function ([2]; dosing period and follow-up): gradually improved
- reward driven motivation to consume alcohol ([2]; dosing period and follow-up): reduced reward driven motivation
- abstinent days [2, 3]: more abstinent days
- period of time between heavy drinking days [2, 3]: longer period of time between heavy drinking days
- alcohol intake [2, 4]: reduced alcohol intake
- short-term memory function and general mood [2, 4]: enhanced short-term memory function and general mood
- impulsivity ([2]; intranasal 80 IU per day for 28 days, dependent and non-dependent drinkers): decreased impulsivity
- sleep behavior ([2]; throughout the medication dosing period): improved sleep behavior
